In patent US11090304B2 (Amgen Inc., priority 2018, dated 2021):

target: GDP-bound KRAS protein (aa 1-169), containing both G12C and C118A amino acid substitutions (Homo sapiens, UniProt P01116, C118A/G12C); assay: Coupled nucleotide exchange assay (SOS-mediated, AlphaScreen); assay type: biochemical; conditions: 5 min compound pre-incubation
Sequence (P01116 1-169 isoform P01116-2 G12C/C118A): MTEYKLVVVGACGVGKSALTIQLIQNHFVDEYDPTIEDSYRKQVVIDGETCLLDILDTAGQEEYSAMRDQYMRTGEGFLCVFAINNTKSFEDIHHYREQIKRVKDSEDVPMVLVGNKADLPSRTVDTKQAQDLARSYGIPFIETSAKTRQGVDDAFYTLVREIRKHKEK

Compound	Coupled exchange IC50 (5 min)
C=CC(=O)N1CCN(c2nc(=O)n(-c3ccccc3C(C)C)c3nc(-c4ncccc4F)c(Cl)cc23)[C@@H](C)C1 [Example 54-92, 6-chloro-7-(3-fluoro-2-pyridinyl)-4-((2S)-2-methyl-4-(2-propenoyl)-1-piperazinyl)-1-(2-(2-propanyl)phenyl)pyrido [2,3-d]pyrimidin-2(1H)-one]	1.27 | nda μM
C=CC(=O)N1CCN(c2cc(=O)n(CC(C)(C)C)c3nc(-c4ccccc4F)c(Cl)cc23)[C@@H](C)C1 [Example 121, 6-chloro-1-(2,2-dimethylpropyl)-7-(2-fluorophenyl)-4-((2S)-2-methyl-4-(2-propenoyl)-1-piperazinyl)-1,8-naphthyridin-2(1H)-one]	14.2 | nda μM
C=CC(=O)N1CCN(c2nc(=O)n(-c3c(C)ccnc3C(C)C)c3nc(-c4ccccc4F)c(Cl)cc23)[C@H](C(F)(F)F)C1 (single isomer, unassigned) [Example 78-9-1]	1.26 | nda μM
C=CC(=O)N1CCN(c2nc(=O)n(-c3ccccc3C(C)C)c3nc(-c4ccco4)c(Cl)cc23)[C@@H](C)C1 [Example 54-47, 6-chloro-7-(2-furanyl)-4-((2S)-2-methyl-4-(2-propenoyl)-1-piperazinyl)-1-(2-(2-propanyl)phenyl)pyrido [2,3-d]pyrimidin-2(1H)-one]	10.7 | nda μM
C=CC(=O)N1C[C@H](C)N(c2nc(=O)n(-c3c(C)ccnc3C(C)C)c3nc(Cl)c(Cl)cc23)[C@@H](C)C1 (atropisomer, axis not shown; (M)) [Example 73-14, (M)-6,7-dichloro-4-((2S,6S)-2,6-dimethyl-4-(2-propenoyl)-1-piperazinyl)-1-(4-methyl-2-(2-propanyl)-3-pyridinyl)pyrido[2,3-d]pyrimidin-2(1H)-one]	0.711 | nda μM
C=CC(=O)N1CCN(c2nc(=O)n(-c3ccccc3C(C)C)c3nc(N(C)CCO)c(Cl)cc23)[C@@H](C)C1 [Example 69-7, 6-chloro-7-((2-hydroxyethyl)(methyl)amino)-4-((2S)-2-methyl-4-(2-propenoyl)-1-piperazinyl)-1-(2-(2-propanyl)phenyl)pyrido[2,3-d]pyrimidin-2(1H)-one]	48.5 | nda μM
C=CC(=O)N1CCN(c2nc(=O)n(-c3ccccc3C3(C(F)(F)F)CC3)c3nc(-c4c(O)cccc4F)c(F)cc23)[C@@H](C)C1 [Example 59-1, 6-Fluoro-7-(2-fluoro-6-hydroxyphenyl)-4-((2S)-2-methyl-4-(2-propenoyl)-1-piperazinyl)-1-(2-(1-(trifluoromethyl)cyclopropyl)phenyl)pyrido[2,3-d]pyrimidin-2(1H)-one]	2.98 | nda μM
C=CC(=O)N1CCN(c2nc(=O)n(-c3c(CC)cccc3CC)c3nc(N4CCOC(C(C)C)C4)c(Cl)cc23)[C@@H](C)C1 (stereo partly drawn) [Example 66-18, 6-chloro-1-(2,6-diethylphenyl)-4-((2S)-2-methyl-4-(2-propenoyl)-1-piperazinyl)-7-(2-(2-propanyl)-4-morpholinyl)pyrido[2,3-d]pyrimidin-2(1H)-one]	76.7 | nda μM
C=CC(=O)N1CCN(c2nc(=O)n(-c3c(CC)cccc3CC)c3nc(N4CCC(C(C)(C)C)C4)c(Cl)cc23)[C@@H](C)C1 (some centres unmarked) [Example 66-21]	33 | nda μM
C=CC(=O)N1CCN(c2nc(=O)n(-c3c(C)cccc3C(C)C)c3nc(-c4cc(Cl)ccc4O)c(F)cc23)[C@@H](C)C1 (single isomer, unassigned) [Example 113]	1.02 | nda μM
C=CC(=O)N1CCN(c2nc(=O)n(-c3ccccc3S(C)(=O)=O)c3nc(-c4c(O)cccc4F)c(Cl)cc23)[C@@H](C)C1 [Example 54-56-1]	2.49 | nda μM
C=CC(=O)N1CCN(c2nc(=O)n(-c3c(CC)ncnc3CC)c3nc(-c4ccccc4F)c(F)cc23)[C@@H](C)C1 [Example 58-22, 1-(4,6-diethyl-5-pyrimidinyl)-6-fluoro-7-(2-fluorophenyl)-4-((2S)-2-methyl-4-(2-propenoyl)-1-piperazinyl)pyrido[2,3-d]pyrimidin-2(1H)-one]	2.71 | nda μM
C=CC(=O)N1CCN(c2nc(=O)n(-c3c(CO)ccnc3C(C)C)c3nc(-c4ccccc4F)c(Cl)cc23)C(C)C1 (atropisomer, axis not shown; (P)) [Example 84-1, (P)-6-chloro-7-(2-fluorophenyl)-1-(4-(hydroxymethyl)-2-(2-propanyl)-3-pyridinyl)-4-((2S)-2-methyl-4-(2-propenoyl)-1-piperazinyl)pyrido[2,3-d]pyrimidin-2(1H)-one]	2.71 | nda μM
C=CC(=O)N1CCN(c2nc(=O)n(-c3ccccc3C(C)C)c3nc(Cl)c(Cl)cc23)[C@@H](C)C1 (atropisomer, axis not shown; (M)) [Example 61-1-1, (M)-6,7-Dichloro-4-((2S)-2-methyl-4-(2-propenoyl)-1-piperazinyl)-1-(2-(2-propanyl)phenyl)pyrido[2,3-d]pyrimidin-2(1H)-one]	2.94 | nda μM
C=CC(=O)N1CCN(c2nc(=O)n(-c3c(C)cccc3C(C)C)c3nc(-c4nc(N)ccc4Cl)c(F)cc23)[C@@H](C)C1 (single isomer, unassigned) [Example 71-1-2]	4.89 | nda μM
C=CC(=O)N1CCN(c2nc(=O)n(-c3ccccc3C(C)(C)C)c3nc(-c4ccccc4F)c(F)cc23)[C@@H](C)C1 (single isomer, unassigned) [Example 58-17-1]	33.2 | nda μM
C=CC(=O)N1CCN(c2nc(=O)n(-c3ccccc3C(C)(C)C)c3nc(-c4ccccc4F)c(F)cc23)[C@@H](C)C1 [Example 58-17, 6-fluoro-7-(2-fluorophenyl)-1-(2-(2-methyl-2-propanyl)phenyl)-4-((2S)-2-methyl-4-(2-propenoyl)-1-piperazinyl)pyrido[2,3-d]pyrimidin-2(1H)-one]	1.68 | nda μM
C=CC(=O)N1CCN(c2nc(=O)n(-c3c(C)ccnc3C(C)C)c3nc(-c4c(O)cccc4F)c(C)cc23)[C@@H](C)C1 (single isomer, unassigned) [Example 74-3-2]	1.12 | nda μM

same assay, conditions: 2 h compound pre-incubation

Compound	Coupled exchange IC50 (2 h)
C=CC(=O)N1CCN(c2nc(=O)n(-c3ccccc3C(F)(F)F)c3cc(Br)c(Cl)cc23)CC1 [Example 128, 7-Bromo-6-chloro-4-(4-(2-propenoyl)-1-piperazinyl)-1-(2-(trifluoromethyl)phenyl)-2(1H)-quinazolinone]	nda | 18 μM

same assay, conditions: read-out: Coupled exchange IC50 (5 min); 5 min compound pre-incubation

Compound	IC50 [µM]
C=CC(=O)N1CC(Nc2nc(=O)n(-c3c(C)ccnc3C(C)C)c3nc(-c4ccccc4F)c(Cl)cc23)C1 (atropisomer, axis not shown; (M)) [Example 76-1, (M)-6-Chloro-7-(2-fluorophenyl)-1-(4-methyl-2-(2-propanyl)-3-pyridinyl)-4-((1-(2-propenoyl)-3-azetidinyl)amino)pyrido[2,3-d]pyrimidin-2(1H)-one]	117
